Measurements as given in PubChem BioAssay AID256 (DTP/NCI, 2004).
“And” between values parts separate entries of the source, which are not always exact repeats. Equal values may be shown once. Toxic doses and inconclusive results are not listed. The calls were made as follows: active = survival T/C of 150% or more; inactive = T/C below 125% in these data.

Test system: CD2F1 mice, L1210 leukemia ip, survival T/C
Test: NCI In Vivo Anticancer Drug Screen. Data for tumor model L1210 Leukemia (intraperitoneal) in CD2F1 (CDF1) mice
Details: higher = longer survival
Method in brief: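 Implant tumor; dose compound or vehicle; measure endpoint in both groups; report treated divided by control.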

[1] = endpoint: mean survival time, dose: 50.0 mg/kg/injection, schedule: Q04DX002 (ip), vehicle: saline with Tween-80
[2] = endpoint: mean survival time, dose: 100.0 mg/kg/injection, schedule: Q04DX002 (ip), vehicle: saline with Tween-80
[3] = endpoint: mean survival time, dose: 200.0 mg/kg/injection, schedule: Q04DX002 (ip), vehicle: saline with Tween-80
[4] = endpoint: mean survival time, dose: 400.0 mg/kg/injection, schedule: Q04DX002 (ip), vehicle: saline with Tween-80
[5] = endpoint: mean survival time, dose: 100.0 mg/kg/injection, schedule: Q01DX001 (ip), vehicle: saline with Tween-80
[6] = endpoint: mean survival time, dose: 200.0 mg/kg/injection, schedule: Q01DX001 (ip), vehicle: saline with Tween-80
[7] = endpoint: mean survival time, dose: 400.0 mg/kg/injection, schedule: Q01DX001 (ip), vehicle: saline with Tween-80
[8] = endpoint: mean survival time, dose: 12.5 mg/kg/injection, schedule: Q01DX009 (ip), vehicle: saline with Tween-80
[9] = endpoint: mean survival time, dose: 25.0 mg/kg/injection, schedule: Q01DX009 (ip), vehicle: saline with Tween-80
[10] = endpoint: mean survival time, dose: 50.0 mg/kg/injection, schedule: Q01DX009 (ip), vehicle: saline with Tween-80
[11] = endpoint: mean survival time, dose: 100.0 mg/kg/injection, schedule: Q01DX009 (ip), vehicle: saline with Tween-80
[12] = endpoint: mean survival time, dose: 200.0 mg/kg/injection, schedule: Q01DX009 (ip), vehicle: saline with Tween-80
[13] = endpoint: mean survival time, dose: 400.0 mg/kg/injection, schedule: Q01DX009 (ip), vehicle: saline with Tween-80
[14] = endpoint: mean survival time, dose: 100.0 mg/kg/injection, schedule: Q04DX003 (ip), vehicle: saline with Tween-80
[15] = endpoint: mean survival time, dose: 200.0 mg/kg/injection, schedule: Q04DX003 (ip), vehicle: saline with Tween-80
[16] = endpoint: mean survival time, dose: 400.0 mg/kg/injection, schedule: Q04DX003 (ip), vehicle: saline with Tween-80
[17] = endpoint: mean survival time, dose: 100.0 mg/kg/injection, schedule: Q01DX001 (ip), vehicle: saline
[18] = endpoint: mean survival time, dose: 200.0 mg/kg/injection, schedule: Q01DX001 (ip), vehicle: saline
[19] = endpoint: mean survival time, dose: 400.0 mg/kg/injection, schedule: Q01DX001 (ip), vehicle: saline

Measured: T/C

CC(=O)C(=O)O.CC(=O)C(=O)O.[NH-]C1CCCCC1[NH-].[Pt+2] (centres undefined)
inactive: endpoint: mean survival time, dose: 1.56 mg/kg/injection, schedule: Q04DX003 (ip), vehicle: other 109 % of control | endpoint: mean survival time, dose: 12.5 mg/kg/injection, schedule: Q04DX003 (ip), vehicle: other 120 % of control | endpoint: median survival time, dose: 25.0 mg/kg/injection, schedule: Q01DX009 (ip), vehicle: dextrose 87 % of control

Cc1ccc(S(=O)(=O)NNC(=O)c2ccccc2C(=O)O)cc1
inactive: [1] 96 % of control | [2] 100 % of control | [3] 100 % of control | [4] 96 % of control

CN(C(=O)Nc1ccccc1)c1ccccc1
inactive: endpoint: mean survival time, dose: 50.0 mg/kg/injection, schedule: Q01DX009 (ip), vehicle: other 104 % of control | endpoint: mean survival time, dose: 100.0 mg/kg/injection, schedule: Q01DX009 (ip), vehicle: other 97 % of control | endpoint: mean survival time, dose: 200.0 mg/kg/injection, schedule: Q01DX009 (ip), vehicle: other 97 % of control

COc1ccc(/C=C2/Cc3cccc4c([N+](=O)[O-])ccc2c34)cc1
inactive: [5] 89 % of control | [6] 86 % of control | [7] 102 % of control

COc1cc2cnccc2cc1O
inactive: endpoint: mean survival time, dose: 25.0 mg/kg/injection, schedule: Q01DX009 (ip), vehicle: water 95 % of control | endpoint: mean survival time, dose: 50.0 mg/kg/injection, schedule: Q01DX009 (ip), vehicle: water 101 % of control | endpoint: mean survival time, dose: 100.0 mg/kg/injection, schedule: Q01DX009 (ip), vehicle: water 96 % of control

CCCCOC(=O)C=O
inactive: [8] 101 % of control | [9] 105 % of control | [10] 99 % of control

CC(C)C(=O)OCCOc1ccccc1
inactive: [11] 100 % of control | [12] 100 % of control | [13] 98 % of control

CCOC(=O)c1ccc(NC(=O)NC(Cc2ccccc2)c2ccccc2)cc1 (centres undefined)
inactive: endpoint: mean survival time, dose: 25.0 mg/kg/injection, schedule: Q04DX003 (ip), vehicle: saline with Tween-80 111 % of control | endpoint: mean survival time, dose: 50.0 mg/kg/injection, schedule: Q01DX001 (ip), vehicle: saline with Tween-80 96 % of control | [10] 87 % of control and 91 % of control | endpoint: mean survival time, dose: 50.0 mg/kg/injection, schedule: Q04DX003 (ip), vehicle: saline with Tween-80 104 % of control | [5] 96 % of control | [11] 87 % of control | [2] 91 % of control | [14] 89 % of control and 106 % of control | [6] 94 % of control | [12] 87 % of control and 90 % of control | [3] 87 % of control and 88 % of control | [15] 101 % of control | [7] 94 % of control | [4] 86 % of control

Cc1ccc(OP(=O)(c2ccccc2)c2ccccc2)cc1
inactive: [14] 98 % of control | [15] 100 % of control | [16] 100 % of control

O=C(Cc1ccccn1)NCC(O)c1ccccc1 (centres undefined)
inactive: endpoint: mean survival time, dose: 100.0 mg/kg/injection, schedule: Q04DX003 (ip), vehicle: saline 89 % of control | endpoint: mean survival time, dose: 200.0 mg/kg/injection, schedule: Q04DX003 (ip), vehicle: saline 102 % of control | endpoint: mean survival time, dose: 400.0 mg/kg/injection, schedule: Q04DX003 (ip), vehicle: saline 100 % of control

Cc1cc(C)c2ccc(Cl)nc2n1
inactive: endpoint: mean survival time, dose: 75.0 mg/kg/injection, schedule: Q01DX001 (ip), vehicle: other 100 % of control

COc1ccc(NC(=O)Oc2ccc(Cl)cc2Cl)cc1
inactive: [9] 112 % of control | endpoint: mean survival time, dose: 25.0 mg/kg/injection, schedule: Q04DX002 (ip), vehicle: saline with Tween-80 100 % of control | [10] 112 % of control | [1] 100 % of control | [11] 101 % of control | [2] 95 % of control and 98 % of control | [4] 102 % of control

Cc1cccc(N)n1 (tested in a mixture with another compound)
inactive: endpoint: mean survival time, dose: 12.5 mg/kg/injection, schedule: Q01DX009 (ip), vehicle: saline 104 % of control | endpoint: mean survival time, dose: 25.0 mg/kg/injection, schedule: Q01DX009 (ip), vehicle: saline 101 % of control | endpoint: mean survival time, dose: 50.0 mg/kg/injection, schedule: Q01DX009 (ip), vehicle: saline 96 % of control

COc1ccc2c(c1)C=CC(C#N)N2 (centres undefined)
inactive: [14] 87 % of control | [15] 91 % of control

NC(=O)Cc1c[nH]c2cc(O)ccc12
inactive: [11] 93 % of control | [14] 97 % of control | [12] 95 % of control | [15] 97 % of control | [13] 100 % of control | [16] 95 % of control

CC(CNCCN)C[Si](C)(C)C (centres undefined)
inactive: endpoint: mean survival time, dose: 6.25 mg/kg/injection, schedule: Q01DX009 (ip), vehicle: saline with Tween-80 100 % of control | [8] 98 % of control | [9] 104 % of control

CC1=CSC2=NC(=O)CCN12
inactive: [17] 93 % of control | [18] 100 % of control | [19] 90 % of control

COc1ccc(C2=N/C(=C\c3ccccc3)C(=O)O2)cc1
inactive: [11] 96 % of control | [14] 93 % of control | [12] 90 % of control | [15] 92 % of control | [13] 98 % of control | [16] 89 % of control

CCOC(=O)C(C)C(C)=O (centres undefined)
inactive: [17] 104 % of control | [18] 98 % of control | [19] 101 % of control

CC12CCCCC1=CC(=O)CC2 (centres undefined)
inactive: [11] 97 % of control | [2] 96 % of control | [12] 102 % of control | [3] 112 % of control | [4] 104 % of control

COC1OC(CO)C(O)C(OC)C1OC (centres undefined) (tested in a mixture with another compound)
inactive: [17] 100 % of control | [18] 100 % of control | [19] 100 % of control

Nc1nc(N)c2nc(CNc3ccc(C(=O)NCCCC(=O)O)cc3)cnc2n1 (tested in a mixture with another compound)
inactive: endpoint: mean survival time, dose: 1.0 mg/kg/injection, schedule: Q01DX009 (ip), vehicle: Klucel (hydroxypropylcellulose) (HPC) 97 % of control | endpoint: mean survival time, dose: 5.0 mg/kg/injection, schedule: Q01DX009 (ip), vehicle: Klucel (hydroxypropylcellulose) (HPC) 102 % of control | endpoint: mean survival time, dose: 10.0 mg/kg/injection, schedule: Q01DX009 (ip), vehicle: Klucel (hydroxypropylcellulose) (HPC) 108 % of control | endpoint: mean survival time, dose: 20.0 mg/kg/injection, schedule: Q01DX009 (ip), vehicle: Klucel (hydroxypropylcellulose) (HPC) 102 % of control

NC(=O)C1=C(N)CCC1
inactive: [11] 104 % of control | [12] 104 % of control | [13] 106 % of control

O=C1CCC2(CC1C1C=CCC1)OCCO2 (centres undefined)
inactive: [11] 91 % of control | [14] 100 % of control | [12] 94 % of control | [15] 102 % of control | [13] 100 % of control | [16] 98 % of control

CCOC(=O)CC1c2nc3ccccc3cc2CN1C(=O)CCOC(C)=O (centres undefined)
inactive: [11] 95 % of control | [14] 104 % of control | [12] 92 % of control | [15] 100 % of control | [13] 97 % of control | [16] 97 % of control

c1ccc(SCN2CCN(CSc3ccccc3)CC2)cc1
inactive: endpoint: mean survival time, dose: 100.0 mg/kg/injection, schedule: Q01DX009 (ip), vehicle: saline 91 % of control
